Strand notation (5' to 3'): a small letter for the sugar, then the base; units joined by * are phosphorothioate-linked, units joined directly phosphodiester-linked; [ ] holds rarer units or linkages, { } end groups; capitals alone tell only the bases. e = 2'-O-(2-methoxyethyl) (MOE); [5mC] = 5-methylcytosine; d = 2'-deoxy (DNA)
Assays:
HDAC1 = HDAC1 expression in H1299 cells transfected with antisense oligonucleotides (real time RT-PCR, Western blot); format: cell-based, human
Experimental: (§1) H1299 cells are transfected with HDAC1 antisense oligonucleotides NAS 6887, HDAC1 mismatch oligonucleotide NAS 7618, luciferase antisense oligonucleotide NAS 5596, or mock transfected. The following are the sequences of the modified oligonucleotides:
modified such that “s” stands for phosphorothioate, upper case refers to 2′-H, lower case refers to 2′-O-methoxyethyl and “c” refers to 2′-methoxyethyl 5-methylcytidine. Transfection is performed using LIPOFECTIN (Life Technologies) as a carrier according to the manufacturer's instruction. The transfection mixture is prepared in OPTI-MEM (Life Technologies) containing 6 μl LIPOFECTIN per 400 nM oligonucleotide. Transfection is carried out for 4 h, and is repeated twice on two consecutive days. […] RNA concentration is measured on CytoFluor Multi-well plate reader (PerSeptive Biosystems, Framingham, Mass.) using RIBO GREEN RNA Quantification kit (Molecular Probes, Eugene, Oreg.). […]
To determine the effect of specific HDAC1 blockade on RhoB expression, antisense oligonucleotides against HDAC1 were used. […] RNA and protein were isolated from H1299 cells transfected with the HDAC1 antisense oligonucleotides (NAS 6887), the corresponding mismatch (NAS 7618) and the unrelated luciferase control oligonucleotide (NAS 5596), and were analysed by real time RT-PCR and Western blot for HDAC1 and RhoB expression level. […]

RhoB = RhoB expression in H1299 cells transfected with antisense oligonucleotides (Western blot); format: cell-based, human; details: 400 nM oligonucleotide with LIPOFECTIN, harvested 72 h after first transfection
Experimental: as §1
modified such that “s” stands for phosphorothioate, upper case refers to 2′-H, lower case refers to 2′-O-methoxyethyl and “c” refers to 2′-methoxyethyl 5-methylcytidine. Transfection is performed using LIPOFECTIN (Life Technologies) as a carrier according to the manufacturer's instruction. The transfection mixture is prepared in OPTI-MEM (Life Technologies) containing 6 μl LIPOFECTIN per 400 nM oligonucleotide. Transfection is carried out for 4 h, and is repeated twice on two consecutive days. Cells are harvested 72 h after the first transfection. RNA and proteins are isolated using Trizol reagent (Life Technologies) according to the manufacturer's instruction. Traces of DNA are removed from RNA samples using DNA-free (Ambion, Austin, Tex.) according to the manufacturer's protocol. RNA concentration is measured on CytoFluor Multi-well plate reader (PerSeptive Biosystems, Framingham, Mass.) using RIBO GREEN RNA Quantification kit (Molecular Probes, Eugene, Oreg.). Real Time RT-PCR
To determine the effect of specific HDAC1 blockade on RhoB expression, antisense oligonucleotides against HDAC1 were used. Potent antisense oligonucleotides against HDAC1 as well as oligonucleotides with mismatched nucleotides were synthesized and transfected into H1299 cells as specifically disclosed herein and as described in Examples 6-9. […] RNA and protein were isolated from H1299 cells transfected with the HDAC1 antisense oligonucleotides (NAS 6887), the corresponding mismatch (NAS 7618) and the unrelated luciferase control oligonucleotide (NAS 5596), and were analysed by real time RT-PCR and Western blot for HDAC1 and RhoB expression level. […] In contrast, no effects on RhoB expression were found in cells transfected with the NAS 7618 and NAS 5596 oligonucleotides.

Row | Substance | Expression of HDAC1 (real time RT-PCR and Western blot) (HDAC1; H1299 cells, 400 nM oligonucleotide with LIPOFECTIN, harvested 72 h after first transfection) | Inhibition of HDAC1 mRNA level (HDAC1; transfected H1299 cells) | RhoB expression (protein level) (RhoB)
1 | NAS 6887: HDAC1 antisense oligonucleotide, SEQ ID NO 12: gct gtAs CsTsCs CsGsAs Csat gtt (antisense eGe[5mC]eTeGeTdA*dC*dT*dC*dC*dG*dA*dC*eAeTeGeTeT) | efficiently blocked | very potent inhibition | significantly induced
2 | NAS 7618: HDAC1 mismatch oligonucleotide, SEQ ID NO 13: gct ttAs CsGsCs CsTsAs Csag gtt (antisense GCTTTACGCCTACAGGTT; phosphorothioate modifications, chemistry not fully specified) | – | – | no effects
3 | NAS 5596: luciferase antisense control oligonucleotide, SEQ ID NO 14: cct taCs CsTsGs CsTsAs Gsct ggc (antisense CCTTACCTGCTAGCTGGC; phosphorothioate modifications, chemistry not fully specified) | – | – | no effects
